# How the values were obtained:
# M. suipneumoniae NB12 = assay: Anti-mycoplasmal activity, MIC in Friis broth agarose; assay type: cell-based; settings: Mesomycoplasma hyopneumoniae, 144 h, Friis broth solidified with 0.9% agarose, 6 days incubation at 37°C, read-out: MIC
# M. suipneumoniae JF 435 = assay: as above; assay type: cell-based; settings: Mesomycoplasma hyopneumoniae, JF435, 144 h, Friis broth solidified with 0.9% agarose, 6 days incubation at 37°C, read-out: MIC
# M. suipneumoniae HK(2) = assay: as above; assay type: cell-based; settings: Mesomycoplasma hyopneumoniae, 144 h, Friis broth solidified with 0.9% agarose, 6 days incubation at 37°C, read-out: MIC
# M. suipneumoniae MS16 = assay: as above; assay type: cell-based; settings: Mesomycoplasma hyopneumoniae, 144 h, Friis broth solidified with 0.9% agarose, 6 days incubation at 37°C, read-out: MIC
# [1] = tested on: M. suipneumoniae PW/C/210; assay: as above; assay type: cell-based; settings: Mesomycoplasma hyopneumoniae, 144 h, Friis broth solidified with 0.9% agarose, 6 days incubation at 37°C, read-out: MIC
# M. suipneumoniae LABER = assay: as above; assay type: cell-based; settings: Mesomycoplasma hyopneumoniae, 144 h, Friis broth solidified with 0.9% agarose, 6 days incubation at 37°C, read-out: MIC
# M. suipneumoniae UCD 1 = assay: as above; assay type: cell-based; settings: Mesomycoplasma hyopneumoniae, UCD1, 144 h, Friis broth solidified with 0.9% agarose, 6 days incubation at 37°C, read-out: MIC
# M. suipneumoniae TAM 6N = assay: as above; assay type: cell-based; settings: Mesomycoplasma hyopneumoniae, TAM6N, 144 h, Friis broth solidified with 0.9% agarose, 6 days incubation at 37°C, read-out: MIC
# [2] = tested on: M. suipneumoniae ATCC 25095; assay: as above; assay type: cell-based; settings: Mesomycoplasma hyopneumoniae, ATCC25095, 144 h, Friis broth solidified with 0.9% agarose, 6 days incubation at 37°C, read-out: MIC
# M. hyorhinis ATCC 23234 = assay: as above; assay type: cell-based; settings: Mesomycoplasma hyorhinis, ATCC23234, 144 h, Friis broth solidified with 0.9% agarose, 6 days incubation at 37°C, read-out: MIC
# M. bovis NCTC 10131 = assay: microbe, parasite or virus in culture; assay type: cell-based; settings: NCTC10131, 144 h
# [3] = tested on: M. bovigenitalium ATCC 14173; assay: Anti-mycoplasmal activity, MIC in Friis broth agarose; assay type: cell-based; settings: 144 h, Friis broth solidified with 0.9% agarose, 6 days incubation at 37°C, read-out: MIC
# M. dispar NCTC 10125 = assay: as above; assay type: cell-based; settings: 144 h, Friis broth solidified with 0.9% agarose, 6 days incubation at 37°C, read-out: MIC
# M. pneumoniae ATCC 15492 = assay: as above; assay type: cell-based; settings: Mycoplasmoides pneumoniae, ATCC15492, 144 h, Friis broth solidified with 0.9% agarose, 6 days incubation at 37°C, read-out: MIC
# E. coli NCTC 10418 [4] = assay: Human bacteria, MIC by serial dilution in nutrient agar; assay type: cell-based; settings: Escherichia coli, NCTC10418; E. coli NCTC 10418 (human panel); nutrient agar with 5% chocolated horse blood; 18 hours at 37°C; read-out: MIC
# E. coli ESS = assay: as above; assay type: cell-based; settings: Escherichia coli, nutrient agar with 5% chocolated horse blood, 18 hours at 37°C, read-out: MIC
# P. mirabilis 889 = assay: as above; assay type: cell-based; settings: Proteus mirabilis, nutrient agar with 5% chocolated horse blood, 18 hours at 37°C, read-out: MIC
# K. aerogenes A = assay: as above; assay type: cell-based; settings: Klebsiella aerogenes, nutrient agar with 5% chocolated horse blood, 18 hours at 37°C, read-out: MIC
# Ps. aeruginosa 10662 = assay: as above; assay type: cell-based; settings: Pseudomonas aeruginosa, nutrient agar with 5% chocolated horse blood, 18 hours at 37°C, read-out: MIC
# [5] = tested on: Pasteurella multocida 1633; assay: as above; assay type: cell-based; settings: nutrient agar with 5% chocolated horse blood, 18 hours at 37°C, read-out: MIC
# [6] = tested on: Haemophilus influenzae Q1; assay: as above; assay type: cell-based; settings: nutrient agar with 5% chocolated horse blood, 18 hours at 37°C, read-out: MIC
# [7] = tested on: Haemophilus influenzae Wy21; assay: as above; assay type: cell-based; settings: nutrient agar with 5% chocolated horse blood, 18 hours at 37°C, read-out: MIC
# [8] = tested on: Neisseria catarrhalis 1502; assay: as above; assay type: cell-based; settings: nutrient agar with 5% chocolated horse blood, 18 hours at 37°C, read-out: MIC
# [9] = tested on: Corynebacterium xerosis 9755; assay: as above; assay type: cell-based; settings: nutrient agar with 5% chocolated horse blood, 18 hours at 37°C, read-out: MIC
# Sarcina lutea 8340 = assay: as above; assay type: cell-based; settings: Micrococcus luteus, nutrient agar with 5% chocolated horse blood, 18 hours at 37°C, read-out: MIC
# Staph. aureus Russell = assay: as above; assay type: cell-based; settings: Staphylococcus aureus, nutrient agar with 5% chocolated horse blood, 18 hours at 37°C, read-out: MIC
# Staph. aureus W2827 = assay: as above; assay type: cell-based; settings: Staphylococcus aureus, nutrient agar with 5% chocolated horse blood, 18 hours at 37°C, read-out: MIC
# Strep. faecalis I = assay: as above; assay type: cell-based; settings: Enterococcus faecalis, nutrient agar with 5% chocolated horse blood, 18 hours at 37°C, read-out: MIC
# [10] = tested on: Strep. pyogenes R80/421-A; assay: as above; assay type: cell-based; settings: Streptococcus pyogenes, nutrient agar with 5% chocolated horse blood, 18 hours at 37°C, read-out: MIC
# Strep. spp. 64/848-C = assay: as above; assay type: cell-based; settings: nutrient agar with 5% chocolated horse blood, 18 hours at 37°C, read-out: MIC
# Strep. pneumoniae CN33 = assay: as above; assay type: cell-based; settings: Streptococcus pneumoniae, nutrient agar with 5% chocolated horse blood, 18 hours at 37°C, read-out: MIC
# E. coli NCTC 10418 [11] = assay: Veterinary bacteria, MIC by two fold serial dilution in agar; settings: Escherichia coli, NCTC10418, 18 h
# Experimental: (§1) The activity of the compounds of the Examples against various organisms important in veterinary infections was determined using two fold serial dilutions in Diagnostic Sensitivity Test Agar inoculated with 10^4 organisms.
# E. coli E1 = assay: as above; settings: Escherichia coli, E1, 18 h
# Experimental: as §1
# S. typhimurium S18 = assay: as above; settings: Salmonella enterica, TYPHIMURIUM, 18 h
# Experimental: as §1
# Bord. bronchiseptica B08 = assay: as above; settings: Bordetella bronchiseptica, B08, 18 h
# Experimental: as §1
# Bord. bronchiseptica BO9 = assay: as above; settings: Bordetella bronchiseptica, BO9, 18 h
# Experimental: as §1
# Past. multocida PA1 = assay: as above; settings: Pasteurella multocida, PA1, 18 h
# Experimental: as §1
# Past. multocida PA2 = assay: as above; settings: Pasteurella multocida, PA2, 18 h
# Experimental: as §1
# [12] = tested on: Corynebacterium pyogenes CY1; assay: as above; settings: CY1, 18 h
# Experimental: as §1
# [13] = tested on: Staph. aureus B4 (pen. resistant); assay: as above; settings: Staphylococcus aureus, 18 h
# Experimental: as §1
# [14] = tested on: Staph. aureus 152 (pen. sens.); assay: as above; settings: Staphylococcus aureus, 18 h
# Experimental: as §1
# Strep. dysgalactiae SPD1 = assay: as above; settings: Streptococcus dysgalactiae, SPD1, 18 h
# Experimental: as §1
structure (smiles),measurement,setting,value
"CC(=CC(=O)OCc1ccc([S+](C)[O-])cc1)CC1OCC(CC2OC2C(C)C(C)O)C(O)C1O (stereo not drawn) [Example 2, p- Methylsulphinylbenzyl monate A]",MIC,M. suipneumoniae NB12,0.25 µg/mL
same,MIC,M. suipneumoniae JF 435,0.25 µg/mL
same,MIC,M. suipneumoniae HK(2),0.25 µg/mL
same,MIC,M. suipneumoniae MS16,0.1 µg/mL
same,MIC,[1],0.1 µg/mL
same,MIC,M. suipneumoniae LABER,0.25 µg/mL
same,MIC,M. suipneumoniae UCD 1,0.25 µg/mL
same,MIC,M. suipneumoniae TAM 6N,0.5 µg/mL
same,MIC,[2],0.25 µg/mL
same,MIC,M. hyorhinis ATCC 23234,0.25 µg/mL
same,MIC,M. bovis NCTC 10131,≤ 0.01 µg/mL
same,MIC,[3],0.025 µg/mL
same,MIC,M. dispar NCTC 10125,0.1 µg/mL
same,MIC,M. pneumoniae ATCC 15492,1 µg/mL
same,MIC,E. coli NCTC 10418 [4],> 100 µg/mL
same,MIC,E. coli ESS,0.5 µg/mL
same,MIC,P. mirabilis 889,50 µg/mL
same,MIC,K. aerogenes A,> 100 µg/mL
same,MIC,Ps. aeruginosa 10662,> 100 µg/mL
same,MIC,[5],0.5 µg/mL
same,MIC,[6],0.05 µg/mL
same,MIC,[7],0.1 µg/mL
same,MIC,[8],0.5 µg/mL
same,MIC,[9],> 100 µg/mL
same,MIC,Sarcina lutea 8340,> 100 µg/mL
same,MIC,Staph. aureus Russell,2.5 µg/mL
same,MIC,Staph. aureus W2827,2.5 µg/mL
same,MIC,Strep. faecalis I,50 µg/mL
same,MIC,[10],0.5 µg/mL
same,MIC,Strep. spp. 64/848-C,1 µg/mL
same,MIC,Strep. pneumoniae CN33,1 µg/mL
same,MIC,E. coli NCTC 10418 [11],> 80 µg/mL
same,MIC,E. coli E1,> 80 µg/mL
same,MIC,S. typhimurium S18,> 80 µg/mL
same,MIC,Bord. bronchiseptica B08,40 µg/mL
same,MIC,Bord. bronchiseptica BO9,5 µg/mL
same,MIC,Past. multocida PA1,0.625 µg/mL
same,MIC,Past. multocida PA2,0.625 µg/mL
same,MIC,[12],> 80 µg/mL
same,MIC,[13],2.5 µg/mL
same,MIC,[14],1.25 µg/mL
same,MIC,Strep. dysgalactiae SPD1,0.312 µg/mL
"CC(=CC(=O)OCc1ccc(S(C)(=O)=O)cc1)CC1OCC(CC2OC2C(C)C(C)O)C(O)C1O (stereo not drawn) [Example 3, p-Methylsulphonylbenzyl monate A]",MIC,M. suipneumoniae NB12,0.1 µg/mL
same,MIC,M. suipneumoniae JF 435,0.25 µg/mL
same,MIC,M. suipneumoniae HK(2),0.25 µg/mL
same,MIC,M. suipneumoniae MS16,0.1 µg/mL
same,MIC,[1],0.1 µg/mL
same,MIC,M. suipneumoniae LABER,0.1 µg/mL
same,MIC,M. suipneumoniae UCD 1,0.25 µg/mL
same,MIC,M. suipneumoniae TAM 6N,0.25 µg/mL
same,MIC,[2],0.1 µg/mL
same,MIC,M. hyorhinis ATCC 23234,0.1 µg/mL
same,MIC,M. bovis NCTC 10131,< 0.01 µg/mL
same,MIC,[3],≤ 0.01 µg/mL
same,MIC,M. dispar NCTC 10125,0.05 µg/mL
same,MIC,M. pneumoniae ATCC 15492,0.25 µg/mL
same,MIC,E. coli NCTC 10418 [4],100 µg/mL
same,MIC,E. coli ESS,0.5 µg/mL
same,MIC,P. mirabilis 889,50 µg/mL
same,MIC,K. aerogenes A,> 100 µg/mL
same,MIC,Ps. aeruginosa 10662,> 100 µg/mL
same,MIC,[5],0.25 µg/mL
same,MIC,[6],0.05 µg/mL
same,MIC,[7],0.1 µg/mL
same,MIC,[8],0.25 µg/mL
same,MIC,[9],> 100 µg/mL
same,MIC,Sarcina lutea 8340,> 100 µg/mL
same,MIC,Staph. aureus Russell,2.5 µg/mL
same,MIC,Staph. aureus W2827,2.5 µg/mL
same,MIC,Strep. faecalis I,50 µg/mL
same,MIC,[10],0.25 µg/mL
same,MIC,Strep. spp. 64/848-C,0.5 µg/mL
same,MIC,Strep. pneumoniae CN33,0.5 µg/mL
same,MIC,E. coli NCTC 10418 [11],80 µg/mL
same,MIC,E. coli E1,> 80 µg/mL
same,MIC,S. typhimurium S18,> 80 µg/mL
same,MIC,Bord. bronchiseptica B08,20 µg/mL
same,MIC,Bord. bronchiseptica BO9,2.5 µg/mL
same,MIC,Past. multocida PA1,0.025 µg/mL
same,MIC,Past. multocida PA2,0.156 µg/mL
same,MIC,[12],> 80 µg/mL
same,MIC,[13],1.25 µg/mL
same,MIC,[14],1.25 µg/mL
same,MIC,Strep. dysgalactiae SPD1,0.156 µg/mL
